Measured values from ChEMBL document CHEMBL4376886, “Design, Synthesis, and Evaluation of Novel Enterovirus 71 Inhibitors as Therapeutic Drug Leads for the Treatment of Human Hand, Foot, and Mouth Disease” (J Med Chem, 2020).

How the values were obtained:
[1] = Subacute toxicity in PND4 Sprague-Dawley rat assessed as animal survival at 30 to 50 mg/kg/day, po administered via gavage for 14 days and measured for 28 days; format: organism-based; conditions: in vivo
in vivo [2] = conditions: Sprague-Dawley, rat, ip, 5 mg/kg
Description: Apparent clearance during terminal phase in Sprague-Dawley rat at 5 mg/kg, ip administered as single dose measured upto 24 hrs by LC-MS/MS analysis

in vivo [3] = conditions: Sprague-Dawley, rat, ip, 5 mg/kg; remark: listed apart in the source
Description: Apparent half-life of the terminal disposition phase in Sprague-Dawley rat at 5 mg/kg, ip administered as single dose measured upto 24 hrs by LC-MS/MS analysis

[4] = Apparent half-life of the terminal disposition phase in Sprague-Dawley rat at 5 mg/kg, po administered as single dose measured upto 24 hrs by LC-MS/MS analysis; format: ADME, organism-based; conditions: in vivo, read-out: t1/2 lambda z (converted)
[5] = Subacute toxicity in PND21 Sprague-Dawley rat assessed as development of opaque lens at 100 mg/kg/day, po administered via gavage for 14 days and measured for 28 days; format: organism-based; conditions: in vivo, 672 h
in vivo [6] = conditions: Sprague-Dawley, rat, ip, 5 mg/kg; remark: listed apart in the source
Description: Cmax in Sprague-Dawley rat at 5 mg/kg, ip administered as single dose measured upto 24 hrs by LC-MS/MS analysis

in vivo [7] = conditions: Sprague-Dawley, rat, ip, 5 mg/kg; remark: listed apart in the source
Description: Tmax in Sprague-Dawley rat at 5 mg/kg, ip administered as single dose measured upto 24 hrs by LC-MS/MS analysis

[8] = Acute toxicity in juvenile zebrafish assessed as fatality rate at 50 uM after 48 hrs; conditions: in vivo
[9] = Tmax in Sprague-Dawley rat at 5 mg/kg, po administered as single dose measured upto 24 hrs by LC-MS/MS analysis; format: ADME, organism-based; conditions: in vivo
[10] = Acute toxicity in juvenile zebrafish assessed as fatality rate at 200 uM after 24 hrs; conditions: in vivo
[11] = Metabolic stability in Sprague-Dawley rat liver microsomes assessed as intrinsic clearance measured upto 300 mins in presence of NADP+ by HPLC analysis
[12] = Acute toxicity in juvenile zebrafish assessed as fatality rate at 20 uM after 48 hrs; conditions: in vivo
in vivo [13] = conditions: zebrafish
Description: Acute toxicity in juvenile zebrafish assessed as fatality rate at 150 uM after 24 hrs

[14] = Subacute toxicity in PND14 Sprague-Dawley rat assessed as hair loss at 100 mg/kg/day, po administered via gavage for 14 days and measured for 28 days; format: organism-based; conditions: in vivo, 672 h
[15] = Bioavailability in Sprague-Dawley rat at 5 mg/kg, ip administered as single dose measured upto 24 hrs by LC-MS/MS analysis; conditions: in vivo
[16] = Apparent clearance during terminal phase in Sprague-Dawley rat at 5 mg/kg, po administered as single dose measured upto 24 hrs by LC-MS/MS analysis; format: ADME, organism-based; conditions: in vivo, read-out: CLz/F (converted)
[17] = Apparent clearance during terminal phase in Sprague-Dawley rat at 1 mg/kg, iv administered as single dose measured upto 24 hrs by LC-MS/MS analysis; format: ADME, organism-based; conditions: in vivo
Enterovirus A71 = assay: Antiviral activity against Enterovirus 71 genotype C4 infected in BALB/c mouse assessed as protection rate at 10 mg/kg/day, ip qd for 7 days administration starting from 48 hrs post-infection and measured for 14 days; format: functional
[18] = Acute toxicity in juvenile zebrafish assessed as fatality rate at 100 uM after 24 hrs; conditions: in vivo
[19] = Oral bioavailability in Sprague-Dawley rat at 5 mg/kg administered as single dose measured upto 24 hrs by LC-MS/MS analysis; format: ADME, organism-based; conditions: in vivo
[20] = Subacute toxicity in PND14 Sprague-Dawley rat assessed as quadriplegia at 100 mg/kg/day, po administered via gavage for 14 days and measured for 28 days; format: organism-based; conditions: in vivo, 672 h
[21] = Acute toxicity in juvenile zebrafish assessed as fatality rate at 100 uM after 48 hrs; conditions: in vivo
[22] = Cmax in Sprague-Dawley rat at 5 mg/kg, po administered as single dose measured upto 24 hrs by LC-MS/MS analysis; format: ADME, organism-based; set-up: dose 5 mg/kg, route oral; conditions: in vivo
[23] = Subacute toxicity in PND4 Sprague-Dawley rat assessed as irreversible opaqueness of lens at 30 to 50 mg/kg/day, po administered via gavage for 14 days and measured for 28 days; format: organism-based; conditions: in vivo, 672 h
[24] = Subacute toxicity in PND14 Sprague-Dawley rat assessed as development of opaque lens at 100 mg/kg/day, po administered via gavage for 14 days and measured for 28 days; format: organism-based; conditions: in vivo, 672 h
[25] = Subacute toxicity in PND7 Sprague-Dawley rat assessed as animal survival at 30 to 50 mg/kg/day, po administered via gavage for 14 days and measured for 28 days; format: organism-based; conditions: in vivo
[26] = Subacute toxicity in PND21 Sprague-Dawley rat assessed as quadriplegia at 100 mg/kg/day, po administered via gavage for 14 days and measured for 28 days; format: organism-based; conditions: in vivo, 672 h
[27] = Apparent half-life of the terminal disposition phase in Sprague-Dawley rat at 1 mg/kg, iv administered as single dose measured upto 24 hrs by LC-MS/MS analysis; format: ADME, organism-based; conditions: in vivo, read-out: t1/2 lambda z (converted)
[28] = Subacute toxicity in PND14 Sprague-Dawley rat assessed as lens fiber loosening and vacuolar degeneration at 100 mg/kg/day, po administered via gavage for 14 days and measured at day 28 by hematoxylin and eosin staining based histopathological analysis; format: organism-based; conditions: in vivo, 336 h
[29] = AUC (0 to t) in Sprague-Dawley rat at 5 mg/kg, po administered as single dose measured upto 24 hrs by LC-MS/MS analysis; format: ADME, organism-based; conditions: in vivo
[30] = rat, in vivo, ip, 5 mg/kg, 24 h
Description: AUC (0 to t) in Sprague-Dawley rat at 5 mg/kg, ip administered as single dose measured upto 24 hrs by LC-MS/MS analysis

[31] = AUC (0 to t) in Sprague-Dawley rat at 1 mg/kg, iv administered as single dose measured upto 24 hrs by LC-MS/MS analysis; format: ADME, organism-based; conditions: in vivo
in vivo [32] = conditions: zebrafish; remark: listed apart in the source
Description: Acute toxicity in juvenile zebrafish assessed as fatality rate at 150 uM after 48 hrs

[33] = Cmax in Sprague-Dawley rat at 1 mg/kg, iv administered as single dose measured upto 24 hrs by LC-MS/MS analysis; format: ADME, organism-based; set-up: dose 1 mg/kg, route intravenous; conditions: in vivo
[34] = Cytotoxicity against human RD cells assessed as reduction in cell viability incubated for 24 hrs by MTT assay; conditions: rd
[35] = Acute toxicity in juvenile zebrafish assessed as fatality rate at 200 uM after 48 hrs; conditions: in vivo
[36] = Inhibition of capsid protein VP1 in Enterovirus 71 (FY)-Luc infected in human RD cells assessed as reduction in virus-induced cell death preincubated for 24 hrs followed by […] substrate addition and measured after 5 mins by chemiluminescence analysis; format: cell-based, Enterovirus A71; conditions: Enterovirus A
[37] = Subacute toxicity in PND7 Sprague-Dawley rat assessed as irreversible opaqueness of lens at 30 to 50 mg/kg/day, po administered via gavage for 14 days and measured for 28 days; format: organism-based; conditions: in vivo, 672 h
[38] = Subacute toxicity in PND21 Sprague-Dawley rat assessed as hair loss at 100 mg/kg/day, po administered via gavage for 14 days and measured for 28 days; format: organism-based; conditions: in vivo, 672 h
[39] = Acute toxicity in juvenile zebrafish assessed as fatality rate at 20 uM after 24 hrs; conditions: in vivo
[40] = Acute toxicity in juvenile zebrafish assessed as fatality rate at 50 uM after 24 hrs; conditions: in vivo

## CCO/N=C/c1ccc(OCCC(C)CCN2CCN(c3ccnc(N)c3)C2=O)cc1 (stereo unspecified)
[1]
  survival at 672 h: 100%
In vivo [2]
  CL/F at 24 h: 381 mL/min/kg
In vivo [3]
  half-life at 24 h: 2.64 h
[4]
  half-life: 2.99 h
[5]
  Activity: Toxic
In vivo [6]
  Cmax at 24 h: 149 ng/mL
In vivo [7]
  Tmax at 24 h: 0.5 h
[8]
  mortality at 48 h, 50 µM: 100%
[9]
  Tmax: 1 h
[10]
  mortality at 24 h, 200 µM: 100%
[11]
  microsomal CLint at 5 h: 38.9 µL/min/mg
[12]
  mortality at 48 h, 20 µM: 100%
In vivo [13]
  mortality at 24 h, 150 µM: 100%
[14]
  Activity: Toxic
[15]
  bioavailability at 24 h: 85%
[16]
  CL/F: 1600 mL/min/kg
[17]
  CLz/F: 13.2 mL/min/kg
Enterovirus A71
  Activity: 100%
[18]
  mortality at 24 h, 100 µM: 100%
[19]
  bioavailability: 73.3%
[20]
  Activity: Toxic
[21]
  mortality at 48 h, 100 µM: 100%
[22]
  Cmax: 81.8 ng/mL
[23]
  Activity: Toxic
[24]
  Activity: Toxic
[25]
  survival at 672 h: 100%
[26]
  Activity: Toxic
[27]
  half-life: 0.5 h
[28]
  Activity: Toxic
[29]
  AUCt: 222 ng·h/mL
[30]
  AUCt: 258 ng·h/mL
[31]
  AUCt: 60.8 ng·h/mL
In vivo [32]
  mortality at 48 h, 150 µM: 100%
[33]
  Cmax: 23.3 ng/mL
[34]
  CC50 at 24 h: 29.4 µM
[35]
  mortality at 48 h, 200 µM: 100%
[36]
  EC50: 0.025 nM
[37]
  Activity: Toxic
[38]
  Activity: Toxic
[39]
  mortality at 24 h, 20 µM: 100%
[40]
  mortality at 24 h, 50 µM: 100%
